≈ marks a conversion by molar mass, not a printed value.
Columns and labels:
[1] = Solubility at RT in hydrogenation solvent mixtures doped with IPA; type: physicochemical
Text: An investigation by examining the solubility characteristics of 9-nitrominocycline and 9-aminominocycline sulfate in the presence of various amounts of IPA to gauge whether the starting material and/or product could in fact precipitate out in the reaction solvent was initiated.

[2] = Dynamic vapor sorption (DVS) study; type: physicochemical; conditions: RH 90%
Text: As a comparison, we ran the DVS on 9-nitrominocycline. This intermediate picks up to 40% by weight of water at RH 90%.

[3] = tested on: methicillin-resistant Staphylococcus aureus; conditions: cited from earlier work
[4] = tested on: penicillin-resistant Streptococcus pneumoniae; conditions: cited from earlier work
[5] = tested on: vancomycin-resistant enterococci; conditions: cited from earlier work
[6] = tested on: organisms carrying either of the two major forms of tetracycline resistance: efflux and ribosomal protection; conditions: organisms with tetracycline resistance by efflux or ribosomal protection; cited from earlier work
[7] = 80:20 water:methanol with 20% wt/wt IPA, aqueous with cosolvent or surfactant or cyclodextrin, Exp. 8: +20% wt/wt IPA, 80:20 water:methanol
[8] = 80:20 water:methanol with 35% wt/wt IPA, aqueous with cosolvent or surfactant or cyclodextrin, Exp. 9: +35% wt/wt IPA, 80:20 water:methanol
[9] = 80:20 water:methanol with 50% wt/wt IPA, aqueous with cosolvent or surfactant or cyclodextrin, Exp. 10: +50% wt/wt IPA, 80:20 water:methanol
[10] = v:v) with 0% wt/wt IPA, organic solvent or mixture, Exp. 1: MeOH:water (99:1, v:v) +0% wt/wt IPA
[11] = v:v) with 4% wt/wt IPA, organic solvent or mixture, Exp. 2: MeOH:water (99:1, v:v) +4% wt/wt IPA
[12] = v:v) with 20% wt/wt IPA, organic solvent or mixture, Exp. 3: MeOH:water (99:1, v:v) +20% wt/wt IPA
[13] = v:v) with 35% wt/wt IPA, organic solvent or mixture, Exp. 4: MeOH:water (99:1, v:v) +35% wt/wt IPA
[14] = v:v) with 50% wt/wt IPA, organic solvent or mixture, Exp. 5: MeOH:water (99:1, v:v) +50% wt/wt IPA

Row | SMILES | Solubility (in words) ([1]; 80:20 water:methanol) | solubility [1, 7] [mg/mL] | solubility [1, 8] [mg/mL] | solubility [1, 9] [mg/mL] | Solubility (in words) ([1]; 99:1 methanol:water) | Solubility at RT ([1]; Exp. 6: +0% wt/wt IPA, 80:20 water:methanol) | Solubility at RT ([1]; Exp. 7: +4% wt/wt IPA, 80:20 water:methanol) | solubility ([1]; organic solvent or mixture, Exp. 11: IPA Only) [mg/mL] | solubility [1, 10] [mg/mL] | solubility [1, 11] [mg/mL] | solubility [1, 12] [mg/mL] | solubility [1, 13] [mg/mL] | solubility [1, 14] [mg/mL] | solubility ([1]; 80:20 water:methanol with 0% wt/wt IPA, aqueous with cosolvent or surfactant or cyclodextrin, Exp. 6: +0% wt/wt IPA, 80:20 water:methanol) [mg/mL] | solubility ([1]; 80:20 water:methanol with 4% wt/wt IPA, aqueous with cosolvent or surfactant or cyclodextrin, Exp. 7: +4% wt/wt IPA, 80:20 water:methanol) [mg/mL] | Water uptake in DVS [2] | Antibacterial activity [3] | Antibacterial activity [4] | Antibacterial activity [5] | Antibacterial activity [6]
1 | CN(C)c1cc(N)c(O)c2c1C[C@H]1C[C@H]3[C@H](N(C)C)C(O)=C(C(N)=O)C(=O)[C@@]3(O)C(O)=C1C2=O [9-aminominocycline] | high | 243 (≈ 514 mM) | 103 (≈ 218 mM) | 58 (≈ 123 mM) | somewhat low | high | high | 1 (≈ 2.12 mM) | 14 (≈ 29.6 mM) | 16 (≈ 33.9 mM) | 12 (≈ 25.4 mM) | 9 (≈ 19 mM) | 7 (≈ 14.8 mM) |  |  |  |  |  |  | 
2 | CN(C)c1cc([N+](=O)[O-])c(O)c2c1C[C@H]1C[C@H]3[C@H](N(C)C)C(O)=C(C(N)=O)C(=O)[C@@]3(O)C(O)=C1C2=O [9-nitrominocycline] | fairly high | > 453 | > 303 | 333 (≈ 663 mM) |  |  |  |  | > 466 | 129 (≈ 257 mM) | 68 (≈ 135 mM) | 30 (≈ 59.7 mM) | 23 (≈ 45.8 mM) | > 421 | > 426 | up to 40 % by weight |  |  |  | 
3 | CN(C)c1cc(NC(=O)CNC(C)(C)C)c(O)c2c1C[C@H]1C[C@H]3[C@H](N(C)C)C(O)=C(C(N)=O)C(=O)[C@@]3(O)C(O)=C1C2=O [Tigecycline, (4S,4aS,5aR,12aS)-9-[2-(tert-butylamino)acetamido]-4,7-bis(dimethylamino)-1,4,4a,5,5a,6,11,12a-octahydro-3,10,12,12a-tetrahydroxy-1,11-dioxo-2-naphthacenecarboxamide] |  |  |  |  |  |  |  |  |  |  |  |  |  |  |  |  | active | active | active | active
